Where “and” joins values, the source holds several entries; their conditions need not be identical. Equal entries are not always repeated.
Tested on: BDF1 mice, Adenocarcinoma 755 s.c., tumor weight T/C
Experiment: NCI In Vivo Anticancer Drug Screen. Data for tumor model Adenocarcinoma 755 (subcutaneous) in B6D2F1 (BDF1) mice
Settings: endpoint: mean tumor weight, higher = larger tumour
Summary of the method: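 Values express treated (T) relative to vehicle-dosed control (C) animals, based on survival or tumour size measured after compound treatment of mice bearing a transplanted tumour.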

[1] = dose: 25.0 mg/kg/injection, schedule: Q01DX011 (ip), vehicle: carboxymethylcellulose (CMC)
[2] = dose: 25.0 mg/kg/injection, schedule: Q01DX011 (ip), vehicle: other
[3] = dose: 50.0 mg/kg/injection, schedule: Q01DX011 (ip), vehicle: carboxymethylcellulose (CMC)
[4] = dose: 50.0 mg/kg/injection, schedule: Q01DX011 (ip), vehicle: other
[5] = dose: 100.0 mg/kg/injection, schedule: Q01DX011 (ip), vehicle: carboxymethylcellulose (CMC)
[6] = dose: 100.0 mg/kg/injection, schedule: Q01DX011 (ip), vehicle: other
[7] = dose: 12.5 mg/kg/injection, schedule: Q01DX011 (ip), vehicle: methylcellulose (MC)
[8] = dose: 25.0 mg/kg/injection, schedule: Q01DX011 (ip), vehicle: methylcellulose (MC)
[9] = dose: 50.0 mg/kg/injection, schedule: Q01DX011 (ip), vehicle: methylcellulose (MC)

In the case of Nc1ncnc2c1cnn2Cc1ccc(Cl)cc1, the T/C (dose: 9.5 mg/kg/injection, schedule: Q01DX011 (ip), vehicle: carboxymethylcellulose (CMC)) is reported as 98 % of control and the T/C (dose: 75.0 mg/kg/injection, schedule: Q01DX011 (ip), vehicle: carboxymethylcellulose (CMC)) is reported as 38 % of control.
In the case of CCCCN(C)N=Nc1ccc(CCC(=O)NN)cc1, the T/C (dose: 31.0 mg/kg/injection, schedule: Q01DX011 (ip), vehicle: carboxymethylcellulose (CMC)) is reported as 19 % of control.
For Cn1c(N)nc2nc[nH]c2c1=O, the T/C (dose: 9.3 mg/kg/injection, schedule: Q01DX011 (ip), vehicle: methylcellulose (MC)) was 79 % of control, the T/C (dose: 18.7 mg/kg/injection, schedule: Q01DX011 (ip), vehicle: methylcellulose (MC)) was 68 % of control and the T/C (dose: 37.5 mg/kg/injection, schedule: Q01DX011 (ip), vehicle: methylcellulose (MC)) was 29 % of control.
With Cc1cc(O)c(C(C)C)cc1S(=O)(=O)O (tested in a mixture with another compound) the T/C [1] was 78 % of control, the T/C [2] was 32 % of control and the T/C [3] was 53 % of control. For the same molecule, the T/C [4] was 83 % of control, the T/C [5] was 49 % of control and the T/C [6] was 44 % of control. For the same molecule, the T/C (dose: 200.0 mg/kg/injection, schedule: Q01DX011 (ip), vehicle: carboxymethylcellulose (CMC)) was 42 % of control and the T/C (dose: 200.0 mg/kg/injection, schedule: Q01DX011 (ip), vehicle: other) was 7 % of control.
In the case of CC1=C(O)c2ccccc2C(=O)C1=O, the T/C [2] is reported as 106 % of control, the T/C [4] is reported as 84 % of control and the T/C [6] is reported as 96 % of control.
For CCCOC(=O)C1(N)CCCC1, the T/C (dose: 12.5 mg/kg/injection, schedule: Q01DX011 (ip), vehicle: carboxymethylcellulose (CMC)) was 79 % of control, the T/C [1] was 44 % of control and the T/C [3] was 24 % of control. For the same molecule, the T/C [5] was 7 % of control.
With Nc1nc(SCc2ccccc2[N+](=O)[O-])c2ncn(C3OC(CO)C(O)C3O)c2n1 (centres undefined) the T/C [7] was 21 % of control, the T/C [8] was 7 % of control and the T/C [9] was 2 % of control.
For CC(C)Cn1cnc2c(SC(C)C)nc(N)nc21, the T/C (dose: 6.25 mg/kg/injection, schedule: Q01DX011 (ip), vehicle: methylcellulose (MC)) was 56 % of control, the T/C [7] was 19 % of control and the T/C [8] was 4 % of control. The T/C [9] was 1 % of control.
For C[C@]12CCC(=O)C=C1CC[C@@H]1[C@@H]2[C@@H](O)C[C@@]2(C)[C@H]1CC[C@]2(O)C(=O)CO, the T/C (dose: 2.5 mg/kg/injection, schedule: Q01DX011 (sc), vehicle: steriod suspending solution) was 96 % of control, the T/C (dose: 4.0 mg/kg/injection, schedule: Q01DX011 (sc), vehicle: steriod suspending solution) was 49 % of control and the T/C (dose: 5.0 mg/kg/injection, schedule: Q01DX011 (sc), vehicle: steriod suspending solution) was 110 % of control. For the same molecule, the T/C (dose: 8.7 mg/kg/injection, schedule: Q01DX011 (sc), vehicle: steriod suspending solution) was 49 % of control, the T/C (dose: 10.0 mg/kg/injection, schedule: Q01DX011 (sc), vehicle: steriod suspending solution) was 56 % of control and the T/C (dose: 17.5 mg/kg/injection, schedule: Q01DX011 (sc), vehicle: steriod suspending solution) was 32 % of control. For the same molecule, the T/C (dose: 20.0 mg/kg/injection, schedule: Q01DX011 (sc), vehicle: steriod suspending solution) was 32 % of control and 34 % of control, the T/C (dose: 35.0 mg/kg/injection, schedule: Q01DX011 (sc), vehicle: steriod suspending solution) was 24 % of control and the T/C (dose: 40.0 mg/kg/injection, schedule: Q01DX011 (sc), vehicle: steriod suspending solution) was 11 % of control. For the same molecule, the T/C (dose: 70.0 mg/kg/injection, schedule: Q01DX011 (sc), vehicle: steriod suspending solution) was 8 % of control, the T/C (dose: 80.0 mg/kg/injection, schedule: Q01DX011 (sc), vehicle: steriod suspending solution) was 13 % of control and the T/C (dose: 140.0 mg/kg/injection, schedule: Q01DX011 (sc), vehicle: steriod suspending solution) was 1 % of control.
In the case of CS(=O)(=O)OCCC(=O)NCCCCCCNC(=O)CCOS(C)(=O)=O, the T/C (dose: 57.0 mg/kg/injection, schedule: Q01DX011 (ip), vehicle: methylcellulose (MC)) is reported as 117 % of control, the T/C (dose: 113.0 mg/kg/injection, schedule: Q01DX011 (ip), vehicle: methylcellulose (MC)) is reported as 110 % of control and the T/C (dose: 225.0 mg/kg/injection, schedule: Q01DX011 (ip), vehicle: methylcellulose (MC)) is reported as 45 % of control.
O=C1c2ccccc2C(=O)c2c1c(O)c1ccccc1c2O was tested, and the T/C (dose: 100.0 mg/kg/injection, schedule: Q#A X022 (im), vehicle: other) was 92 % of control, the T/C (dose: 100.0 mg/kg/injection, schedule: Q#A X022 (sc), vehicle: other) was 82 % of control and the T/C (dose: 200.0 mg/kg/injection, schedule: Q#A X022 (im), vehicle: other) was 79 % of control. For the same molecule, the T/C (dose: 200.0 mg/kg/injection, schedule: Q#A X022 (sc), vehicle: other) was 82 % of control, the T/C (dose: 300.0 mg/kg/injection, schedule: Q#A X022 (im), vehicle: other) was 73 % of control and the T/C (dose: 300.0 mg/kg/injection, schedule: Q#A X022 (ip), vehicle: other) was 29 % of control. For the same molecule, the T/C (dose: 300.0 mg/kg/injection, schedule: Q#A X022 (sc), vehicle: other) was 52 % of control, the T/C (dose: 400.0 mg/kg/injection, schedule: Q#A X022 (im), vehicle: other) was 73 % of control and the T/C (dose: 400.0 mg/kg/injection, schedule: Q#A X022 (sc), vehicle: other) was 68 % of control.
For CC(=O)OCC(=O)[C@@]1(O)CC[C@H]2[C@@H]3CCC4=CC(=O)C=C[C@]4(C)[C@H]3C(=O)C[C@@]21C, the T/C (dose: 0.9 mg/kg/injection, schedule: Q01DX011 (sc), vehicle: steriod suspending solution) was 68 % of control, the T/C (dose: 1.7 mg/kg/injection, schedule: Q01DX011 (sc), vehicle: steriod suspending solution) was 72 % of control and the T/C (dose: 3.5 mg/kg/injection, schedule: Q01DX011 (sc), vehicle: steriod suspending solution) was 76 % of control. The T/C (dose: 3.7 mg/kg/injection, schedule: Q01DX011 (sc), vehicle: steriod suspending solution) was 64 % of control, the T/C (dose: 7.0 mg/kg/injection, schedule: Q01DX011 (sc), vehicle: steriod suspending solution) was 106 % of control and the T/C (dose: 7.1 mg/kg/injection, schedule: Q01DX011 (sc), vehicle: steriod suspending solution) was 39 % of control. The T/C (dose: 7.5 mg/kg/injection, schedule: Q01DX011 (sc), vehicle: steriod suspending solution) was 50 % of control, the T/C (dose: 14.0 mg/kg/injection, schedule: Q01DX011 (sc), vehicle: steriod suspending solution) was 52 % of control and the T/C (dose: 14.3 mg/kg/injection, schedule: Q01DX011 (sc), vehicle: steriod suspending solution) was 44 % of control. The T/C (dose: 15.0 mg/kg/injection, schedule: Q01DX011 (sc), vehicle: steriod suspending solution) was 27 % of control and 33 % of control, the T/C (dose: 28.7 mg/kg/injection, schedule: Q01DX011 (sc), vehicle: steriod suspending solution) was 19 % of control and 26 % of control and 27 % of control and the T/C (dose: 30.0 mg/kg/injection, schedule: Q01DX011 (sc), vehicle: steriod suspending solution) was 13 % of control and 16 % of control. For the same molecule, the T/C (dose: 57.5 mg/kg/injection, schedule: Q01DX011 (sc), vehicle: steriod suspending solution) was 3 % of control and 11 % of control and 17 % of control, the T/C (dose: 60.0 mg/kg/injection, schedule: Q01DX011 (sc), vehicle: steriod suspending solution) was 12 % of control and the T/C (dose: 115.0 mg/kg/injection, schedule: Q01DX011 (sc), vehicle: steriod suspending solution) was 5 % of control.
C/C(=N\NC(=O)c1ccncc1)c1cccc(Cl)c1 was tested, and the T/C (dose: 7.5 mg/kg/injection, schedule: Q01DX011 (ip), vehicle: methylcellulose (MC)) was 47 % of control and 50 % of control and the T/C (dose: 30.0 mg/kg/injection, schedule: Q01DX011 (ip), vehicle: methylcellulose (MC)) was 31 % of control.
With O=c1ccn(C2OC(CO)C(O)C2O)c(=O)[nH]1 (centres undefined) the T/C (dose: 17.5 mg/kg/injection, schedule: Q01DX011 (ip), vehicle: other) was 57 % of control, the T/C (dose: 35.0 mg/kg/injection, schedule: Q01DX011 (ip), vehicle: other) was 39 % of control and the T/C (dose: 35.0 mg/kg/injection, schedule: Q01DX011 (ip), vehicle: saline) was 30 % of control. The T/C (dose: 70.0 mg/kg/injection, schedule: Q01DX011 (ip), vehicle: other) was 105 % of control, the T/C (dose: 70.0 mg/kg/injection, schedule: Q01DX011 (ip), vehicle: saline) was 75 % of control and the T/C (dose: 140.0 mg/kg/injection, schedule: Q01DX011 (ip), vehicle: other) was 82 % of control. The T/C (dose: 140.0 mg/kg/injection, schedule: Q01DX011 (ip), vehicle: saline) was 32 % of control, the T/C (dose: 280.0 mg/kg/injection, schedule: Q01DX011 (ip), vehicle: other) was 56 % of control and the T/C (dose: 280.0 mg/kg/injection, schedule: Q01DX011 (ip), vehicle: saline) was 42 % of control.
In the case of Oc1ccc2ccccc2c1-c1c(O)ccc2ccccc12, the T/C (dose: 12.6 mg/kg/injection, schedule: Q01DX011 (ip), vehicle: other) is reported as 79 % of control, the T/C [2] is reported as 71 % of control and the T/C [4] is reported as 41 % of control.
CC(=O)OCC1OC(n2cnc3c(N)ncnc32)C(OC(C)=O)C1OC(C)=O (centres undefined) was tested, and the T/C (dose: 30.0 mg/kg/injection, schedule: Q01DX011 (ip), vehicle: carboxymethylcellulose (CMC)) was 150 % of control, the T/C (dose: 120.0 mg/kg/injection, schedule: Q01DX011 (ip), vehicle: carboxymethylcellulose (CMC)) was 113 % of control and the T/C (dose: 240.0 mg/kg/injection, schedule: Q01DX011 (ip), vehicle: carboxymethylcellulose (CMC)) was 103 % of control.

Reference: PubChem BioAssay AID180 (DTP/NCI, 2004)
